Data taken from article PMC6628362, “A New Strategy for Glioblastoma Treatment: In Vitro and In Vivo Preclinical Characterization of Si306, a Pyrazolo[3,4-d]Pyrimidine Dual Src/P-Glycoprotein Inhibitor” (Cancers, 2019).
Read-outs that look alike come from different tables or passages of the source.

How the values were obtained:
[1] = Plasma pharmacokinetics of Si306 in mice; format: in vivo, BALB/C mice; conditions: for AUC(0-t): read-out: AUC 0→24 h; for MRT inf: read-out: MRT 0→∞
Source text: Naive male BALB/C mice (weight 20 ± 2 g) were ordered from Charles River (Milan, Italy). All animals were pathogen free and approximately 4–6 weeks old when they arrived. The adaption period to the environment was not less than seven days. All the procedures used on animals in this study were approved by Institutional Animal Use and Care Committee at Università Cattolica del S. Cuore, Rome and Università degli Studi di Siena and authorized by the Italian Ministry of Health, according to Legislative Decree 116/92, which implemented the European Directive 86/609/EEC on laboratory animal protection in Italy. Methods for all the conducted experiments were performed in accordance with regulations, standards and guidelines of the Animal Use and Care Committee of Università Cattolica del S. Cuore, Rome and Università degli Studi di Siena.
Si306 was dissolved in a mixture of Tween80 (10% v/v), benzyl alcohol (1% v/v) and a 10 mM solution of citric acid. The compound was administered intravenously as a single dose of 25 mg/kg in 200 μL of volume. At several time points (0.08, 0.25, 0.5, 1, 2, 4, 8, 24 h), after drug administration, mice were treated i.p. with heparin (5000 U/kg) and sacrificed under CO2. Five animals were used for each time point. Blood, brain, liver and kidneys were collected for the following quantitative analysis. Approximately 500–600 μL of blood was collected from each animal and transferred to a tube containing 10 μL of heparin and mixed briefly.
For the oral PK studies, mice received a single dose of 50 mg/kg of Si306 (dissolved in the same vehicle used for i.v. studies) in 400 μL of final volume by gavage. At nine time-points (0.25, 0.5, 1, 1.5, 2, 3, 4, 8, 24 h) after administration, mice were sacrificed under CO2. Blood and organs were collected and analyzed by LC-MS. The pharmacokinetic parameters, including area under concentration-time curve (AUC), maximum plasma concentration (Cmax), half-time (t1/2), apparent volume of distribution (V), plasma clearance (CL) and mean residence time (MRT), were calculated by non-compartmental analysis using PKSolver software (ver. 1.0, Nanjing, China).
Blood samples were centrifuged at 5000 rpm for 20 min to separate the plasma fraction, which was subsequently collected in a test tube. Acetonitrile (1 mL, with Si34 as internal standard at the concentration of 5 μg/mL) was added to each sample to denature proteins. Samples were centrifuged at 5000 rpm for 20 min, and the supernatant was recovered, dried under vacuum, solubilized again in methanol (100 μL), and analyzed. Brain and the other organs were homogenized using a T10 basic ULTRA-TURRAX® homogenizer (Bioclass, Pistoia, Italy); in order to extract the compound from the tissue, acetonitrile internal standard solution was added, and the homogenate was centrifuged at 5000 rpm for 20 min. The supernatant was recovered, filtered and analyzed by LC-MS. The quantification of each compound was performed by reference to the appropriate calibration curve. Representative LC-MS chromatograms for Si306 and for Si34 are reported in Figure S2 and Figure S3 respectively.

A172 = test: Cell viability, A172 (Table S1); format: cell-based; conditions: Homo sapiens, A 172; A172, 72 h
Procedure: 1. Cell Growth Inhibition by Dasatinib, Si306 and Pro-Si306
GB cell lines BT138, T98G and A172 were treated with Si306 and pro-Si306 at concentrations ranging from 1 to 100 µM, or with DMSO as a control. Cell viability was evaluated 72 h after treatment for T98G and A172 cell lines and after 24 h for BT-138. In table S1 the IC50 values are reported.
Table S1. Sensitivity of glioblastoma multiforme (GBM) cells to Si306 and pro-Si306 expressed as IC50 […]
Figure S1. Rho 123 accumulation in U87-TxR cells treated with increasing concentrations of TQ (A), Dex-VER (B), Si306 (C) and pro-Si306 (D).
(1 picture or pasted object on this page, not shown here)

[2] = male, BALB/C, mouse, iv, 25 mg/kg, mice
[3] = male, BALB/C, mouse, po, 50 mg/kg, mice

**Q.** With `ClC(Cn1ncc2c(Nc3cccc(Br)c3)nc(SCCN3CCOCC3)nc21)c1ccccc1` (centres unmarked) [Si306] as the molecule, how does the “Cmax for i.v. treatment, times higher than p.o.” value ([1]; i.v. 25 mg/kg vs p.o. 50 mg/kg) read?
**A.** The value was 8.5 times.

**Q.** And the “CL z/F” value ([1]; i.v., 25 mg/kg, mice)?
**A.** Its value is 18.3 mL/min/kg.

**Q.** What about the “V z/F” value ([1]; i.v., 25 mg/kg, mice) of the same molecule?
**A.** The value was 8.17 L/kg.

**Q.** What about the Tmax ([1]; male, BALB/C, mouse, iv, 25 mg/kg, i.v., 25 mg/kg, mice, read-out: Tmax) of the same molecule?
**A.** The Tmax was 0.08 h.

**Q.** And the Tmax ([1]; male, BALB/C, mouse, iv, 25 mg/kg, i.v., 25 mg/kg, mice, read-out: time of peak plasma concentration (converted))?
**A.** The Tmax was 0.0833 h.

**Q.** What about the AUC(0-inf) [1, 2] of the same molecule?
**A.** The AUC(0-inf) was 22800 ng·h/mL.

**Q.** And the Cmax [1, 2]?
**A.** Its Cmax is 25400 ng/mL.

**Q.** And the half-life [1, 2]?
**A.** Its half-life is 5.15 h.

**Q.** And the AUC(0-t) [1, 2]?
**A.** Its AUC(0-t) is 22300 ng·h/mL.

**Q.** And the MRT inf [1, 2]?
**A.** Its MRT inf is 3.78 h.

**Q.** What about the bioavailability ([1]; male, BALB/C, mouse, oral, 50 mg/kg, mice, p.o. 50 mg/kg vs i.v. 25 mg/kg, equation (1)) of the same molecule?
**A.** Its bioavailability is 33.3%.

**Q.** What about the AUC(0-inf) [1, 3] of the same molecule?
**A.** Its AUC(0-inf) is 15200 ng·h/mL.

**Q.** And the Cmax [1, 3]?
**A.** The Cmax was 2970 ng/mL.

**Q.** What about the half-life [1, 3] of the same molecule?
**A.** The half-life was 5.96 h.

**Q.** What about the AUC(0-t) [1, 3] of the same molecule?
**A.** The AUC(0-t) was 14500 ng·h/mL.

**Q.** What about the CL/F ([1]; male, BALB/C, mouse, po, 50 mg/kg, mice, read-out: CL z/F (converted)) of the same molecule?
**A.** The CL/F was 54.8 mL/min/kg.

**Q.** And the MRT inf [1, 3]?
**A.** The MRT inf was 5.7 h.

**Q.** What about the Vd/F ([1]; male, BALB/C, mouse, po, 50 mg/kg, mice, read-out: V z/F) of the same molecule?
**A.** Its Vd/F is 28.3 L/kg.

**Q.** And the Tmax ([1]; male, BALB/C, mouse, po, 50 mg/kg, p.o., 50 mg/kg, mice, read-out: Tmax)?
**A.** Its Tmax is 1.5 h.

**Q.** What about the IC50 (A172) of the same molecule?
**A.** Its IC50 is 1.69 ± 0.6 µM.
